Laboratory results as given in ChEMBL document CHEMBL1132652, “Design and synthesis of isoxazoline derivatives as factor Xa inhibitors. 2” (J Med Chem, 1999).

Columns and labels:
[1] = In vivo clearance (5 mg/kg) was determined in rabbits; type: ADME, organism-based, Oryctolagus cuniculus; conditions: rabbit
Oryctolagus cuniculus = organism: Oryctolagus cuniculus; experiment: Inhibitory activity against thrombus formation in rabbit using Arterio-Venous Shunt Thrombosis Model; type: functional
[2] = The plasma half life (5 mg/kg) was measured in rabbits; type: ADME, organism-based, Oryctolagus cuniculus; conditions: rabbit
Coagulation factor X = Coagulation factor X (Homo sapiens, UniProt P00742); experiment: Binding affinity towards human purified Coagulation factor Xa (FXa)
Chain of Coagulation factor X (P00742 41-179 limits assumed): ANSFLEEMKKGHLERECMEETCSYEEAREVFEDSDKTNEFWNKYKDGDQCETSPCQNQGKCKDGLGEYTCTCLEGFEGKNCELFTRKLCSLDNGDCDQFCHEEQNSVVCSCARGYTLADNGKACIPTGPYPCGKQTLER
Chain of Coagulation factor X (P00742 235-488 limits assumed): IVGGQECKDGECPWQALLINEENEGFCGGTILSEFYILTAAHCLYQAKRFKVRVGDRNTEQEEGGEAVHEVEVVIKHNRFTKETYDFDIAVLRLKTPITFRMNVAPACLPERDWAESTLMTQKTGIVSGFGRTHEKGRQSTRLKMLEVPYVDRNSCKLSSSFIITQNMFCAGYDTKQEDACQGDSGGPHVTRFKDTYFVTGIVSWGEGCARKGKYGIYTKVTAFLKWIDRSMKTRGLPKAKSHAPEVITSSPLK

Serine protease 1 = Serine protease 1 (Homo sapiens, UniProt P07477); experiment: Binding affinity towards trypsin obtained from human purified enzymes
Chain of Serine protease 1 (P07477 whole entry): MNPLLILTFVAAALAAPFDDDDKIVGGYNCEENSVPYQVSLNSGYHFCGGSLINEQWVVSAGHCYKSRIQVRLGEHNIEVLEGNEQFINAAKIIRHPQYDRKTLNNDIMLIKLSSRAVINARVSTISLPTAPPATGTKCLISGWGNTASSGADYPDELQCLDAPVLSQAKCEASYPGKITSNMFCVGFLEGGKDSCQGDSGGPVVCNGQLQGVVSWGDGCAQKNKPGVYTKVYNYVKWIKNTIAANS

Prothrombin = Prothrombin (Homo sapiens, UniProt P00734); experiment: Binding affinity towards thrombin obtained from human purified enzymes

Structure (SMILES)	clearance [1] [mL/min/kg]	half-life [2] [min]	Ki (Coagulation factor X) [nM]	Ki (Serine protease 1) [nM]	Ki (Prothrombin) [nM]	ID50 (Oryctolagus cuniculus) [µM/h/kg]
CCOCC1(C(=O)Nc2ccc(-c3ccccc3S(N)(=O)=O)cn2)CC(c2cccc(C(=N)N)c2)=NO1 (stereo not given) [listing 1 of 2 here]	21.7	36	0.8	25	5000	0.8
N=C(N)c1cccc(C2=NOC(Cn3cnnn3)(C(=O)Nc3ncc(-c4ccccc4S(N)(=O)=O)cn3)C2)c1 (stereo not given) [listing 1 of 2 here]			0.32	120	3000	
CCCNS(=O)(=O)c1ccccc1-c1ccc(NC(=O)C2(Cn3cnnn3)CC(c3cccc(C(=N)N)c3)=NO2)cc1 (stereo not given)			2.1	49	70	
COC(=O)CC1(C(=O)Nc2ccc(-c3ccccc3S(N)(=O)=O)cc2)CC(c2cccc(C(=N)N)c2)=NO1.O=C(O)C(F)(F)F (stereo not given)	3.5	55.2		110	3100	0.6
N=C(N)c1cccc(C2=NOC(Cc3ccccc3)(C(=O)Nc3ccc(-c4ccccc4S(N)(=O)=O)cc3)C2)c1 (stereo not given)			8.5	80	1300	
CCSCC1(C(=O)Nc2ncc(-c3ccccc3S(N)(=O)=O)cn2)CC(c2cccc(C(=N)N)c2)=NO1 (stereo not given)			2.4	350	10000	
N=C(N)c1cccc(C2=NOC(CC(=O)O)(C(=O)Nc3ccc(-c4ccccc4S(N)(=O)=O)cc3)C2)c1.O=C(O)C(F)(F)F (stereo not given)	4.67	94.2	20	630	> 21000	>4.8
CNS(=O)(=O)c1ccccc1-c1ccc(NC(=O)C2(Cn3cnnn3)CC(c3cccc(C(=N)N)c3)=NO2)cc1 (stereo not given)			0.92	49	100	
N=C(N)c1cccc(C2=NOC(Cn3cnnn3)(C(=O)Nc3ccc(-c4ccccc4S(N)(=O)=O)cc3Cl)C2)c1.O=C(O)C(F)(F)F (stereo not given)	13.3	48	0.15	47	300	0.25
N=C(N)c1cccc(C2=NOC(Cn3cnnn3)(C(=O)Nc3ccc(-c4ccccc4S(N)(=O)=O)cc3F)C2)c1 (stereo not given)			0.44	110	500	
CCSCC1(C(=O)Nc2ccc(-c3ccccc3S(N)(=O)=O)cn2)CC(c2cccc(C(=N)N)c2)=NO1 (stereo not given)			2.2	54	2800	
COC(=O)CC1(C(=O)Nc2ncc(-c3ccccc3S(N)(=O)=O)cn2)CC(c2cccc(C(=N)N)c2)=NO1 (stereo not given)			4.3	330	14000	
N=C(N)c1cccc(C2=NOC(Cn3cnnn3)(C(=O)Nc3ncc(-c4ccccc4S(N)(=O)=O)cn3)C2)c1 (stereo not given) [listing 2 of 2 here]			1.3	500	7700	
COC(=O)CC1(C(=O)Nc2ccc(-c3ccccc3S(N)(=O)=O)cn2)CC(c2cccc(C(=N)N)c2)=NO1 (stereo not given)			2.3	52	3900	
COCC1(C(=O)Nc2ncc(-c3ccccc3S(N)(=O)=O)cn2)CC(c2cccc(C(=N)N)c2)=NO1 (stereo not given)			9.9	390	16000	
CCOCC1(C(=O)Nc2ncc(-c3ccccc3S(N)(=O)=O)cn2)CC(c2cccc(C(=N)N)c2)=NO1 (stereo not given)			6.8	330	> 21000	
CCS(=O)(=O)CC1(C(=O)Nc2ncc(-c3ccccc3S(N)(=O)=O)cn2)CC(c2cccc(C(=N)N)c2)=NO1 (stereo not given)			5.3	290	13000	
Cc1cc(-c2ccccc2S(N)(=O)=O)ccc1NC(=O)C1(Cn2cnnn2)CC(c2cccc(C(=N)N)c2)=NO1 (stereo not given)			1	200	300	
N=C(N)c1cccc(C2=NOC(C(=O)Nc3ccc(-c4ccccc4S(N)(=O)=O)cc3)(C(F)(F)F)C2)c1 (stereo not given)			23	310	6100	
N=C(N)c1cccc(C2=NOC(Cn3cnnn3)(C(=O)Nc3ccc(-c4ccccc4S(N)(=O)=O)cn3)C2)c1 (stereo not given) [listing 1 of 2 here]	8.33	42	0.11	18	900	0.032
N=C(N)c1cccc(C2=NOC(C(=O)Nc3ccc(-c4ccccc4S(N)(=O)=O)cc3)C2)c1 (stereo not given)			7.2	83	3900	
CC1(C(=O)Nc2ccc(-c3ccccc3S(N)(=O)=O)cn2)CC(c2cccc(C(=N)N)c2)=NO1 (stereo not given)			4.1	41	8100	
COCC1(C(=O)Nc2ccc(-c3ccccc3S(N)(=O)=O)cn2)CC(c2cccc(C(=N)N)c2)=NO1 (stereo not given)			2.5	45	7400	
N=C(N)c1cccc(C2=NOC(Cn3cnnn3)(C(=O)Nc3ccc(-c4ccccc4S(N)(=O)=O)cn3)C2)c1 (stereo not given) [listing 2 of 2 here]			0.17	31	1100	
CCS(=O)(=O)CC1(C(=O)Nc2ccc(-c3ccccc3S(N)(=O)=O)cn2)CC(c2cccc(C(=N)N)c2)=NO1 (stereo not given)			1.7	72	5800	

Further lines, with some results ahead:

clearance [1] [mL/min/kg]	half-life [2] [min]	Ki (Coagulation factor X) [nM]	Ki (Serine protease 1) [nM]	Ki (Prothrombin) [nM]	Structure (SMILES)	ID50 (Oryctolagus cuniculus) [µM/h/kg]
8.17	37.8	3.3	86	2100	CCOCC1(C(=O)Nc2ccc(-c3ccccc3S(N)(=O)=O)cc2)CC(c2cccc(C(=N)N)c2)=NO1 (stereo not given) [listing 1 of 2 here]	0.74
5	36	0.52	45	400	N=C(N)c1cccc(C2=NOC(Cn3cnnn3)(C(=O)Nc3ccc(-c4ccccc4S(N)(=O)=O)cc3)C2)c1 (stereo not given) [listing 1 of 2 here]	0.035
		2.8	40	8400	CCOCC1(C(=O)Nc2ccc(-c3ccccc3S(N)(=O)=O)cn2)CC(c2cccc(C(=N)N)c2)=NO1 (stereo not given) [listing 2 of 2 here]	
		2.9	90	4300	CCCOCC1(C(=O)Nc2ccc(-c3ccccc3S(N)(=O)=O)cc2)CC(c2cccc(C(=N)N)c2)=NO1 (stereo not given)	
		4.3	120	4500	CC(C)OCC1(C(=O)Nc2ccc(-c3ccccc3S(N)(=O)=O)cc2)CC(c2cccc(C(=N)N)c2)=NO1 (stereo not given)	
		1.6	91	900	N=C(N)c1cccc(C2=NOC(Cn3cnnn3)(C(=O)Nc3ccc(-c4ccccc4S(N)(=O)=O)cc3)C2)c1 (stereo not given) [listing 2 of 2 here]	
		3.4	70	2400	COCC1(C(=O)Nc2ccc(-c3ccccc3S(N)(=O)=O)cc2)CC(c2cccc(C(=N)N)c2)=NO1 (stereo not given)	
		37	140	3900	CC(C)COCC1(C(=O)Nc2ccc(-c3ccccc3S(N)(=O)=O)cc2)CC(c2cccc(C(=N)N)c2)=NO1 (stereo not given)	
		3.5	70	3100	CCOCC1(C(=O)Nc2ccc(-c3ccccc3S(N)(=O)=O)cc2)CC(c2cccc(C(=N)N)c2)=NO1 (stereo not given) [listing 2 of 2 here]	
		13	113	4000	CCCCOCC1(C(=O)Nc2ccc(-c3ccccc3S(N)(=O)=O)cc2)CC(c2cccc(C(=N)N)c2)=NO1 (stereo not given)	
		11	120	5800	CC1(C(=O)Nc2ccc(-c3ccccc3S(N)(=O)=O)cc2)CC(c2cccc(C(=N)N)c2)=NO1 (stereo not given)	
		3.5	72	2000	CCS(=O)(=O)CC1(C(=O)Nc2ccc(-c3ccccc3S(N)(=O)=O)cc2)CC(c2cccc(C(=N)N)c2)=NO1 (stereo not given)	
		1.7	47	3400	N=C(N)c1cccc(C2=NOC(Cn3cncn3)(C(=O)Nc3ccc(-c4ccccc4S(N)(=O)=O)cc3)C2)c1 (stereo not given)	
		1.6	91	2900	N=C(N)c1cccc(C2=NOC(Cn3ncnn3)(C(=O)Nc3ccc(-c4ccccc4S(N)(=O)=O)cc3)C2)c1 (stereo not given)	
		5	98	4400	COCCC1(C(=O)Nc2ccc(-c3ccccc3S(N)(=O)=O)cc2)CC(c2cccc(C(=N)N)c2)=NO1 (stereo not given)	
